Activity calls are given as the source filed them.
Assays:
INS1 = assay: INS-1E survival protection against cytokine death – cell-based, luminescence, retest, dose response (AID 449756); assay type: functional; details: Rattus norvegicus;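 note: cell death triggered by IL-1 beta plus TNF-alpha plus IFN-gamma mixture; protective hits raise ATP signal compared with cytokine alone wells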
[1] = molecular target: T1, Lysine-specific demethylase 4C (Homo sapiens, UniProt Q9H3R0); assay: inhibition of JMJD2C H3K9me3 demethylation – biochemical, DELFIA europium, cherry-picked samples, dose response (AID 488835); assay type: functional
T1 sequence (Q9H3R0 whole entry): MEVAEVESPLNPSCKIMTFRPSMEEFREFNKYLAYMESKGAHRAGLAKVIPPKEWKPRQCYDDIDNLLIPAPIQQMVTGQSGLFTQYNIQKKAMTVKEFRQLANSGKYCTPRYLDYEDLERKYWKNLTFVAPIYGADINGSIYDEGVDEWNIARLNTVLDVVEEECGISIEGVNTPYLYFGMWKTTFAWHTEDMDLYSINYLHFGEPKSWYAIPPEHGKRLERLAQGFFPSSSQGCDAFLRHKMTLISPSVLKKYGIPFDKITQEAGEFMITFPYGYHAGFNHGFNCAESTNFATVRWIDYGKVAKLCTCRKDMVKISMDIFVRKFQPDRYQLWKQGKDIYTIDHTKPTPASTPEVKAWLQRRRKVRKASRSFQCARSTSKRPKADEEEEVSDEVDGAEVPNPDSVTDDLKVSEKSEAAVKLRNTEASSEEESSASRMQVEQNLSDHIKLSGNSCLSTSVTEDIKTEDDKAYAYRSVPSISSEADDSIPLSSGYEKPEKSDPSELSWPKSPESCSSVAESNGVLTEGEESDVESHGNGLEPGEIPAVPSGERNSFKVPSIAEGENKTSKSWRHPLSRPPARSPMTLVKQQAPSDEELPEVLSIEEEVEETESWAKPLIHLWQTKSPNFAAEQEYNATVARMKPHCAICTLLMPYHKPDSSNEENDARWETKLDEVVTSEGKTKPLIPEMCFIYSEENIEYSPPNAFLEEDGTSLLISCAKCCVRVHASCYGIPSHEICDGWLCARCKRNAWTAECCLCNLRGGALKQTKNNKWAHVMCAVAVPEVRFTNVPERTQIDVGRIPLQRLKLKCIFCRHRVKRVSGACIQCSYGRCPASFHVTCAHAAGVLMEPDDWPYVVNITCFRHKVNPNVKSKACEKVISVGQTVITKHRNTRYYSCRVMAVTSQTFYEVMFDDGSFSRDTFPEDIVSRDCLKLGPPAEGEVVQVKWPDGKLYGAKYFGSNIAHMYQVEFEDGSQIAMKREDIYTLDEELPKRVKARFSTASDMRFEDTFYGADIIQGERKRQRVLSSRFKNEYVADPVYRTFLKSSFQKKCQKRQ

[2] = DRD fibroblast viability loss – cell-based, non-viral oncogenic, luminescence, dose response (AID 1934); assay type: functional; details: Homo sapiens
[3] = Luminescence Cell-Based Dose Confirmation HTS to Identify Inhibitors of Platelet Dense Granule Release. [Related pubchem assays: 1663 (Primary HTS), 1678 (Summary of Project)]; assay type: functional
BJ [4] = assay: BJ-TERT-LT-ST fibroblast viability loss – cell-based, RAS-independent, luminescence, dose response (AID 1935); assay type: functional; details: Homo sapiens;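 note: BJ fibroblasts immortalized with TERT plus LT and ST oncogenes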
[5] = molecular target: Luciferin 4-monooxygenase (Photinus pyralis, UniProt P08659); assay: inhibition of purified Photinus pyralis luciferase – biochemical, luminescence, dose response (AID 1891)
Caspase-6 = molecular target: T2, Caspase-6 (Homo sapiens, UniProt P55212); assay: inhibition of CASP6 peptide cleavage – biochemical, VEID-R110 fluorescence, cherry-pick, dose response (AID 720632)
T2 sequence (P55212 whole entry): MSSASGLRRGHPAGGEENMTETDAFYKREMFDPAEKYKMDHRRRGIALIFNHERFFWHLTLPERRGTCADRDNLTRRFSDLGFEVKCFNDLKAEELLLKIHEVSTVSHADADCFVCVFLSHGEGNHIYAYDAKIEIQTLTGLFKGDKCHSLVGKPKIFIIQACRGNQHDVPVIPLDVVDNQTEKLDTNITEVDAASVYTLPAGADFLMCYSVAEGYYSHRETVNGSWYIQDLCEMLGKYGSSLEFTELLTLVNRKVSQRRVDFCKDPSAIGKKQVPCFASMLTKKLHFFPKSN

BJ [6] = assay: cells; assay type: functional, cell-based; details: Homo sapiens
BJ [7] = assay: BJ-TERT fibroblast viability loss – cell-based, RAS-independent, luminescence, dose response (AID 1933); assay type: functional; details: Homo sapiens
Trypsin = Trypsin (Sus scrofa, UniProt P00761); assay: trypsin protease activity blockade – biochemical, quenched peptide fluorescence, cherry-pick, selectivity assay for Rce1 protease inhibitor project, dose response (AID 488789)
Protein RecA = molecular target: T3, Protein RecA (Mycobacterium tuberculosis, UniProt P9WHJ3); assay: Fluorescence Cell-Free Homogeneous Dose Retest to Identify Inhibitors of RecA-Intein Splicing Activity. [Related pubchem assays (depositor defined):AID2097, AID2223, AID489010, AID492950]; assay type: functional
T3 sequence (P9WHJ3 whole entry): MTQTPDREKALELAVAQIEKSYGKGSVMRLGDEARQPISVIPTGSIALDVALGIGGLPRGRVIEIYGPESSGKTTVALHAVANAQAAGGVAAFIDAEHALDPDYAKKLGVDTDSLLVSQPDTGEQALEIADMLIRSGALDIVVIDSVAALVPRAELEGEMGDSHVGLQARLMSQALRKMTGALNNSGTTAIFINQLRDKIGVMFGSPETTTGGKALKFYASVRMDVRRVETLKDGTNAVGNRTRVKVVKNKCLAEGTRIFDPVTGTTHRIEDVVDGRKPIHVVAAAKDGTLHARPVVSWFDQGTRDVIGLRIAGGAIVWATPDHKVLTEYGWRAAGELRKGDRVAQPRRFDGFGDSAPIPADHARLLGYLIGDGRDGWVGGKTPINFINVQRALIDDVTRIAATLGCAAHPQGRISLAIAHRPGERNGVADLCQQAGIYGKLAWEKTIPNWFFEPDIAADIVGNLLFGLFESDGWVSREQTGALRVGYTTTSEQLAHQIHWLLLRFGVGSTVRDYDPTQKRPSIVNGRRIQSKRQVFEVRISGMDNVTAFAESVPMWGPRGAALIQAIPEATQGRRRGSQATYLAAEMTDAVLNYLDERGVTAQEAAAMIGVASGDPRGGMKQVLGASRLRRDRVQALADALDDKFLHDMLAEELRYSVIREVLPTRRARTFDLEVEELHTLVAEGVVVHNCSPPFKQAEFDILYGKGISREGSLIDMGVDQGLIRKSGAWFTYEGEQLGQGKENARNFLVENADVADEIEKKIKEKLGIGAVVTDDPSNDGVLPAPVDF

[8] = molecular target: T4, Replicative DNA helicase DnaB (Mycobacterium tuberculosis, UniProt P9WMR3); assay: DnaB intein splicing inhibitors, dose response, biochemical, cell-free fluorescence (AID 449749); assay type: functional
T4 sequence (P9WMR3 whole entry): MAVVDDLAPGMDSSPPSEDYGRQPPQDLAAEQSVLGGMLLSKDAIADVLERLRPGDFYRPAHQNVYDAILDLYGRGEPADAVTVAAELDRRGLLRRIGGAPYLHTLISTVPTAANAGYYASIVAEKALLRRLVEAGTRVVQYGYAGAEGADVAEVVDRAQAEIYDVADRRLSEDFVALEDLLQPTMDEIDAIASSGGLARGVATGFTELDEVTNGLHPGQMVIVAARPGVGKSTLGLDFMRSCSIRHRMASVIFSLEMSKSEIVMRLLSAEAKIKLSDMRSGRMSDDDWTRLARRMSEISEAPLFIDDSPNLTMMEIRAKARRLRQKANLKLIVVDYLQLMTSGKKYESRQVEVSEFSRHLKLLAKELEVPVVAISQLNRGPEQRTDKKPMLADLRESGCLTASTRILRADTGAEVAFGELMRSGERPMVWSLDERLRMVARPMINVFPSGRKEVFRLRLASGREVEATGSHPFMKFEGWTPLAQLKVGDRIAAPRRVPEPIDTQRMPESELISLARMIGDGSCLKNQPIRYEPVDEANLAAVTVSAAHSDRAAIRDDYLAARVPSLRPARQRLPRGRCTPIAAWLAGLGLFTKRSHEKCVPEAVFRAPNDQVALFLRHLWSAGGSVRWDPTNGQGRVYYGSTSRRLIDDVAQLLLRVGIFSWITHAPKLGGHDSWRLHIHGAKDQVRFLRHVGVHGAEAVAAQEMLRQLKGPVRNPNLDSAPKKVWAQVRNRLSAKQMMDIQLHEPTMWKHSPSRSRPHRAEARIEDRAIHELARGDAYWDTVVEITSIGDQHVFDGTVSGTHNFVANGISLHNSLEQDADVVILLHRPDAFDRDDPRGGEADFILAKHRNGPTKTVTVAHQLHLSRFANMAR

Genome polyprotein = Genome polyprotein (dengue virus type 2, UniProt P29990); assay: flavivirus cap methylation enzyme inhibition – biochemical, confirmation dose response, primary screen (AID 588689); assay type: functional
[9] = HGIII-sPLA2 enzyme inhibition potency – biochemical, QFRET, IC50, dose response (AID 743457);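 note: green fluorescence rise as the enzyme cleaves BODIPY PC-A2 in liposomes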
[10] = molecular target: T5, Fructose-bisphosphate aldolase (Mycobacterium tuberculosis, UniProt P9WQA3); assay: Fluorescence-based biochemical high throughput dose response assay for inhibitors of the fructose-bisphosphate aldolase (FBA) of M. tuberculosis.; assay type: functional
T5 sequence (P9WQA3 whole entry): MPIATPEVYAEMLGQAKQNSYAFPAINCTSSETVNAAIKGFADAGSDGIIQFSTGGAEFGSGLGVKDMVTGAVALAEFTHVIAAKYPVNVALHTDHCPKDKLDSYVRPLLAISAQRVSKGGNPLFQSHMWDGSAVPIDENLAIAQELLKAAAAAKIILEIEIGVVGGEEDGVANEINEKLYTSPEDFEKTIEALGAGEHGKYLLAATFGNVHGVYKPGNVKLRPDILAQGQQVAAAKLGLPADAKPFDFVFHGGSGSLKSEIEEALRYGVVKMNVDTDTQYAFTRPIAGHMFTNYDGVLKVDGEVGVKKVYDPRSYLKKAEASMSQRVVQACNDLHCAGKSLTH

[11] = viability of uninfected HEp-2 cells – cell-based, HTS, cytotoxicity control for RSV inhibitor project, dose response (AID 2410); assay type: functional; details: human respiratory syncytial virus
[12] = viability loss in HEK293 cells – cell-based, plate reader, cherry-picked samples, cytotoxicity control, dose response (AID 743446); assay type: functional
[13] = blockade of melanocortin 4 receptor signaling – cell-based, plate reader, cherry pick, counter-screen for LGR2 antagonist project, dose response (AID 743444); assay type: functional;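 note: transfected HEK 293 cells stimulated with alpha-MSH peptide; potency of inhibitors of the alpha-MSH evoked signal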
[14] = blockers of bursicon-stimulated LGR2 cAMP reporter – cell-based, HEK293, CRE-luciferase reporter, cherry pick, set 2, dose response (AID 743343); assay type: functional;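 note: transfected cells were stimulated with diluted bursicon conditioned medium after compound addition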
Large T antigen = Large T antigen (Simian virus 40, UniProt P03070); assay type: functional, Betapolyomavirus macacae;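 note: Confirmatory-stage PubChem screen for compounds that inhibit SV40 T antigen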
[15] = general mammalian cell viability loss – inhibitor set, cherry-pick, set 2, cytotoxicity control for miR-122 modulator project, dose response (AID 720697); assay type: functional, cell-based
[16] = A549 cell cytotoxicity, dose response, cytotoxicity control, plate reader, cherry-pick, antagonist series (AID 743412); assay type: functional, cell-based

Genome polyprotein, sequence (P29990 2492-3391 limits assumed): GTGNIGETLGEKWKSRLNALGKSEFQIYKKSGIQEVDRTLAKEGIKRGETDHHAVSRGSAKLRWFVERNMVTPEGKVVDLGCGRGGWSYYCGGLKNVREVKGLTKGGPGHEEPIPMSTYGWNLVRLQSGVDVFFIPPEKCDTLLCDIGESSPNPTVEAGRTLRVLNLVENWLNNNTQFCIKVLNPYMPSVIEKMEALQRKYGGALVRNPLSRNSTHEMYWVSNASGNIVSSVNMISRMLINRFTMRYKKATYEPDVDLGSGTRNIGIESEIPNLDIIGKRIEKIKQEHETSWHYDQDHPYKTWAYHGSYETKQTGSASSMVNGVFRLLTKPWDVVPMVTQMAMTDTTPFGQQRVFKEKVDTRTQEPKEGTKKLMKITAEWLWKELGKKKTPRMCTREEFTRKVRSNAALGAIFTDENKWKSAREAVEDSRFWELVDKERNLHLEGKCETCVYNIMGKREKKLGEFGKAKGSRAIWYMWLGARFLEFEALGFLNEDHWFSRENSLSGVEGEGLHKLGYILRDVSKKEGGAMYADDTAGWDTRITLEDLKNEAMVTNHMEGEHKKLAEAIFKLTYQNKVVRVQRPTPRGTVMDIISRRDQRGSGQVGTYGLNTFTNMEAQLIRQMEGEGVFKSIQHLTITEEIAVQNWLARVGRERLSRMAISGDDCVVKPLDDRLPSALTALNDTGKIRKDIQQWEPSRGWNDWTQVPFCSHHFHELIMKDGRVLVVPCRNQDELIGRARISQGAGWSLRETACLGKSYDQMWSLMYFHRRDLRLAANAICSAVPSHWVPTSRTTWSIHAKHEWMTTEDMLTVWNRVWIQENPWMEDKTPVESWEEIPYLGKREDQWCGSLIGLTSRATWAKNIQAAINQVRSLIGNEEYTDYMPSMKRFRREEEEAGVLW
Trypsin, sequence (P00761 whole entry): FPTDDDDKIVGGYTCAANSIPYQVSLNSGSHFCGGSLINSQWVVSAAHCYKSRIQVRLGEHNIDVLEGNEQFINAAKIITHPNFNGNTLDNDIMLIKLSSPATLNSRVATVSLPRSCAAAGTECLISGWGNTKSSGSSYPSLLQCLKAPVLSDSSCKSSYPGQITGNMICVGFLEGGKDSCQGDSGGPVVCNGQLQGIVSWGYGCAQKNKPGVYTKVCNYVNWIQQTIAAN
Large T antigen, sequence (P03070 whole entry): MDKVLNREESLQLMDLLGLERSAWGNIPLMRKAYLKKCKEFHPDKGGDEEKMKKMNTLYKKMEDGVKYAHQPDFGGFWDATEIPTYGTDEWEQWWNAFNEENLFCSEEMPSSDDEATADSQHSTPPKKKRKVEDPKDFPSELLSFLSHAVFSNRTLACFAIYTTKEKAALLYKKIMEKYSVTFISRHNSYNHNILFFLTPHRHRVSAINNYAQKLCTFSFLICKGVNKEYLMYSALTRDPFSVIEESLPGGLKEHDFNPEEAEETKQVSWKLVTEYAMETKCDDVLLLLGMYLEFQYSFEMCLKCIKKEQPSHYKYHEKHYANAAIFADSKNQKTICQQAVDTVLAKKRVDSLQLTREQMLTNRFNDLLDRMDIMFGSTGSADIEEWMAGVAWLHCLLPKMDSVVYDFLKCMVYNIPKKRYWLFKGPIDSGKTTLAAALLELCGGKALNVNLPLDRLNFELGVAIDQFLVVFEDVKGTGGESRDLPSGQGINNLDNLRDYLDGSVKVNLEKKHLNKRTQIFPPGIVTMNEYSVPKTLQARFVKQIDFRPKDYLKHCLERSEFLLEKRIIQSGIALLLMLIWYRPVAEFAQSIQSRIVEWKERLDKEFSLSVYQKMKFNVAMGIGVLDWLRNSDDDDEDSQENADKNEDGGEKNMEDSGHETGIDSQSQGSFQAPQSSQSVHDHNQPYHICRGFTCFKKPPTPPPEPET
Luciferin 4-monooxygenase, sequence (P08659 whole entry): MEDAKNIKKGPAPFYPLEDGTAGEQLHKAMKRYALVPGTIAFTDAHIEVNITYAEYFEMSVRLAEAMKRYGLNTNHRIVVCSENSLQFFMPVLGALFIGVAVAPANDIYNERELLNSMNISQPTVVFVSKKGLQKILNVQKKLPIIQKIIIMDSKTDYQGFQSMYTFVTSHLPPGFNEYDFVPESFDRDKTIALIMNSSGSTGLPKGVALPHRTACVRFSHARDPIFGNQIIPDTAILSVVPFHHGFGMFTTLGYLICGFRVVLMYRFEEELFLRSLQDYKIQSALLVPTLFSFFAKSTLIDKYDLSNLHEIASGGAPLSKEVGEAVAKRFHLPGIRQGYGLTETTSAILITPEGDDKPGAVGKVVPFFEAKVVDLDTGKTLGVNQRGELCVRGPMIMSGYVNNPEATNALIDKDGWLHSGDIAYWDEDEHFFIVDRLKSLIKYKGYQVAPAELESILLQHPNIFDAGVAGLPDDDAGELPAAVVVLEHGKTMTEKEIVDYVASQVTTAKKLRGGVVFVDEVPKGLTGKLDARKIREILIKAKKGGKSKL

O=S(=O)(c1ccc2nc(Nc3ccccc3)ccc2c1)N1CCCCC1
AC50 (INS1): 12.2 µM (active)
AC50 [1]: 6.53 µM (active)

Cn1c(N=Nc2ccccc2)nc2ccccc21
EC50 [2]: 6.84 µM (inconclusive)
EC50 [3]: 1.78 µM (active)
EC50 (BJ [4]): 9.38 µM (active)
EC50 [5]: 1.5 µM (active)
AC50 (Caspase-6): 38.1 µM (active)
EC50 (BJ [6]): 4.78 µM (inconclusive)
EC50 (BJ [7]): 6.48 µM (active)

O=C(Nc1ccccc1)n1ccc(-c2ccc(-n3ccnc3)cc2)n1
AC50 (Trypsin): 17.9 µM (active)

COc1ccc2nc3cccc(OC)c3nc2c1
EC50 (Protein RecA): 20.8 µM (active)
AC50 [8]: > 380 µM (inactive)
AC50 (Caspase-6): 23.1 µM (active)
IC50 (Genome polyprotein): > 100 µM (active)

CC(C)(C)c1csc(NNC(=O)c2ccc(Cl)cc2)n1
IC50 [9]: > 122 µM (inactive)

CCOC(=O)c1c(C)n(C)c2ccc(O)c(S(=O)(=O)c3ccccc3)c12
AC50 [1]: 9.92 µM (active)

CCS(=O)(=O)N1N=C(c2ccc(NS(C)(=O)=O)cc2)CC1c1ccccc1 (stereo not given)
IC50 [10]: > 0.37 µM (active)

CCOc1ccc(NC(=NCc2ccc3c(c2)OCO3)SC2CC(=O)N(c3ccc(C(=O)O)cc3)C2=O)cc1 (stereo not given)
IC50 (cells): 15.6 µM (active)
CC50 [11]: 22.8 µM (active)

CSc1nc2ccc(NC(=O)c3ccccn3)cc2s1
AC50 [12]: > 52 µM (inactive)
AC50 [13]: 5.41 µM (active)
AC50 [14]: 4.16 µM (active)

O=S(=O)(Nc1ccc(O)cc1)c1cccc2cccnc12
IC50 (Large T antigen): 7.36 µM (active)

O=C(NNc1nc(-c2ccccc2)cs1)c1ccco1
IC50 [9]: > 122 µM (inactive)

CCn1c(=O)c2cc(C(=O)N(C)c3cc(C)ccc3OC)sc2c2ccccc21
IC50 (cells): 21.5 µM (active)
CC50 [11]: 21.2 µM (active)

CCC(C)N=C(S)N1CCN(C)CC1 (stereo not given)
AC50 [1]: 26.5 µM (active)

Sc1nnc(CCc2ccccc2)n1-c1ccc(Cl)cc1
IC50 [9]: > 122 µM (inactive)

Cc1nc2cc(-c3cccs3)nn2c(O)c1C
IC50 [10]: > 3.33 µM (active)

CC(C)NC(=O)N1[C@H](CO)[C@@H](c2ccccc2)[C@@H]1CN(C)C(=O)c1cccnc1
AC50 [15]: 0.538 µM (active)

COCC(=O)N1CCCCN2[C@H](CO)[C@H](c3ccc(-c4cccc(C)c4)cc3)[C@@H]2C1
AC50 [12]: > 52 µM (inactive)
AC50 [16]: > 52 µM (inactive)
AC50 [13]: 23.6 µM (active)
AC50 [14]: 18 µM (active)

CC(=N)/C(C#N)=C(/O)COC(=O)c1ccncc1
IC50 (cells): 1.14 µM (active)

Source: ChEMBL document CHEMBL1201862, “PubChem BioAssay data set” (2004)
